Drawing on patent US8927577B2, “Quinolinyl glucagon receptor modulators” (Pfizer Inc., priority 2011, dated 2015), this text covers Kb and Ki for seven molecules.

Broadly, the pKi is the negative decadic logarithm of the Ki, by convention in mol/L.

pKi: −log10 of the molar value. Where a name gives a salt, the structure may show the parent alone.

Test [1] concerns the target T1, human glucagon receptor (Homo sapiens (Human), UniProt P47871). The test can be described thus: Glucagon cAMP Assay. Type of test: cell-based. Conditions: CHOK1 cells stably transfected with the human glucagon receptor; 100 pM glucagon challenge; Kb from IC50 by modified Cheng-Prusoff equation. How it is done: The Cisbio cAMP detection assay is used to determine the ability of punitive glucagon antagonist to block glucagon induced cAMP production. Potential glucagon antagonists are re-suspended and diluted in 100% DMSO. Prior to use in the Glucagon cAMP assay 100×DMSO compound stocks are diluted 20× with DMEM-F12 media (Invitogen) containing either 0.1% or 4% BSA. 2 uls of 5× compound stocks are spotted into the appropriate wells of low binding white solid bottom 384 well plates (Corning). 2 uls of 5% DMSO or known glucagon antagonist are added to each plate to define the assay window. CHOK1 cells stably transfected with the human glucagon receptor are removed from culture flasks with cell dissociation buffer. Cell pellets are re-suspended, at a concentration of 8.3e^5 cells/ml in DMEM-F12 with or without 4% BSA and 200 uM IBMX. 6 uls of cell suspensions are added to the assay plates. Plates are incubated for 20 min at room temperature prior to the addition of a 100 pM challenge dose of glucagon. On a separate plate glucagon dose response curves are run to determine the EC50 of glucagon. After a 30 min room temperature incubation the reaction is terminated by the addition of lysis buffer containing the cAMP detection reagents. Plates are incubated for an additional 60 min at room temperature prior to being read on the Perkin Elmer fluorescent plate reader. Raw is converted to nM of cAMP produced based on a cAMP standard curve. Converted data is then analyzed using the Pfizer data analysis program. IC50 values are determined from the generated sigmoidal dose response curves. Kb values are the calculated using a modified Cheng-Prusoff equation.

The target of test [2] is T1, human glucagon receptor. The test can be described thus: Human Glucagon SPA Assay. The note with it: membrane from chem-1 cells stably transfected with the human glucagon receptor; 125 pM [125I]Glucagon-Cex; Ki by Cheng-Prusoff equation; read-out: Binding Ki. How it is done: The Glucagon SPA assay is used to determine the ability of test compounds to block the binding of glucagon-cex to the glucagon receptor. Test compounds are re-suspended and serially diluted in 100% DMSO. 1 ul of test compound at the desired concentrations is spotted into the appropriate wells of 96 well low binding white clear bottom plate (Corning). 1 ul of DMSO is spotted into total binding wells. 1 ul of a known glucagon antagonist at a concentration of 20 uM is added to non specific binding wells. […] All assay ingredients with the exception of test compounds are re-suspended in the following buffer; 50 mM Hepes pH 7.4; 5 mM MgCl2; 1 mM CaCl; 5% glycerol and 0.2% BSA. Following a 6-10 hr incubation at room temperature the amount of hot ligand bound to the cell membranes is determined by reading the plates on a Wallac Trilux radioactive emission detector. Data is analyzed using Pfizer's Data analysis program. IC50 values are then determined from the generated sigmoidal dose response curves. Ki values are calculated using Cheng-Prusoff equation.

T1 sequence (P47871 26-477): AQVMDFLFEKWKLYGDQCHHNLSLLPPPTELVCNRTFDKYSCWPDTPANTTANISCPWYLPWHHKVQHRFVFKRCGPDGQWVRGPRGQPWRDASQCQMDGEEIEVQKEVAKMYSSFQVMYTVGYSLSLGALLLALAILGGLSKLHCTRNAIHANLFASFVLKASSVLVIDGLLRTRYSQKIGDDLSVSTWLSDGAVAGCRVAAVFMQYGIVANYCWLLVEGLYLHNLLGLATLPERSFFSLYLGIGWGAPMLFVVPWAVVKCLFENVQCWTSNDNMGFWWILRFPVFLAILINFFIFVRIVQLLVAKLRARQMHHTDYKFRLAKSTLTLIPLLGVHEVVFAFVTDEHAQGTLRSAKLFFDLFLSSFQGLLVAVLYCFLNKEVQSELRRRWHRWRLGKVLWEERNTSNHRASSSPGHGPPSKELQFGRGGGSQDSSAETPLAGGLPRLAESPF

Consider `CC(C)CC(Nc1ccc2cc(C(F)(F)F)ccc2n1)c1ccc(C(=O)NCCC(=O)O)cc1` (racemic) [Example 16, (+/−)3-(4-(3-methyl-1-(6-(trifluoromethyl)quinolin-2-ylamino)butyl)benzamido)propanoic acid], for which, in test [1], the Kb came to 800 nM. The pKi in test [2] is 7.04.
In the same order, the values of `Cc1cc2ccccc2nc1NC(CC(C)C)c1ccc(C(=O)NCCC(=O)O)cc1` (single isomer, unassigned; isomer 2) [Example 31, 3-(4-(3-methyl-1-((3-methylquinolin-2-yl)amino)butyl)benzamido)propanoic acid, Isomer 2] are 1300 nM and 5.91.
Turning to `Cc1cc2ccc(F)cc2nc1NC(c1ccc(C(=O)NCCC(=O)O)cc1)C1CC(C)(C)C1` (racemic) [Example 21, (+/−)-3-{4-[(3,3-dimethyl-cyclobutyl)-(7-fluoro-3-methyl-quinolin-2-ylamino)-methyl]-benzoylamino}-propionic acid], in test [1], the Kb was determined as 160 nM. Further, the negative-log Ki (pKi) in test [2] is 6.88.
For `Cc1nc2ccccc2nc1NC(CC(C)C)c1ccc(C(=O)NCCC(=O)O)cc1` (racemic) [Example 8, (+/−)-3-{4-[3-methyl-1-(3-methyl-quinoxalin-2-ylamino)-butyl]-benzoylamino}-propionic acid] the same measures were 1000 nM and 6.01.
In the same order, the values of `CC(C)CC(Nc1cc2ccccc2cn1)c1ccc(C(=O)NCCC(=O)O)cc1` (racemic) [Example 9, (+/−)-3-{4-[1-(isoquinolin-3-ylamino)-3-methyl-butyl]-benzoylamino}-propionic acid trifluoroacetate] are 450 nM and 6.27.
With `CC(C)CC(Nc1ccc2cccc(Cl)c2n1)c1ccc(C(=O)NCCC(=O)O)cc1` (racemic) [Example 13, (+/−)-3-{4-[1-(8-chloro-quinolin-2-ylamino)-3-methyl-butyl]-benzoylamino}-propionic acid], the Kb in test [1] was found to be 140 nM. Further, the pKi in test [2] was 6.70.
In turn, `COc1cccc2ccc(NC(CC(C)C)c3ccc(C(=O)NCCC(=O)O)cc3)nc12` (racemic) [Example 6, (+/−)-3-{4-[1-(8-methoxy-quinolin-2-ylamino)-3-methyl-butyl]-benzoylamino}-propionic acid] displayed a Kb in test [1] of 620 nM. The pKi in test [2] was 5.73.
